pIC50: −log10 of the molar value. “Also recorded” adds a separate entry of the source.
Columns and labels:
[1] = molecular target: CypD (Homo sapiens, UniProt P30405); experiment: chymotrypsin coupled PPIase assay (Suc-AAPF-AMC substrate), CypD inhibition; assay type: biochemical
Source text: (§1) The selectivity of a compound described herein in inhibiting the activity of a first cyclophilin (e.g., CypD) over a second cyclophilin may be measured by the quotient of the IC50 value of the compound in inhibiting the activity of the second cyclophilin over the IC50 value of the compound in inhibiting the activity of the first cyclophilin. The selectivity of a compound described herein in modulating the activity of a first cyclophilin over a second cyclophilin may also be measured by the quotient of the Kd value of an adduct of the compound and the second cyclophilin over the Kd value of an adduct of the compound and the first cyclophilin (e.g., CypD). […] In certain embodiments, selectivity for inhibiting a first cyclophilin over other cyclophilins is measured by Surface Plasmon Resonance (SPR) assays as disclosed in the Examples.
(§2) Following the synthesis of the indicated library members, in vitro inhibition (IC50) assays of these hits were conducted to obtain IC50 inhibitory data. For the IC50 assays, a chymotrypsin coupled PPIase assay using Suc-AAPF-AMC as the peptide substrate was used, whereby isomerization of a peptide substrate Suc-AAPF-AMC from the cis to trans conformation allowed for proteolysis via excess a-chymotrypsin, releasing the C-terminal coumarin fluorophore.

[2] = tested on: 10 other cyclophilins with reported prolyl isomerase activity; experiment: cyclophilin specificity screen: CypD against the other cyclophilins; assay type: biochemical; conditions: result in words
Source text: as §1, §2
Subsequently, to determine if the compounds could both access the S2 pocket and display CypD specificity, JOMBtrans and compound 49 were screened against the 10 other cyclophilins with reported prolyl isomerase activity. […] Co-crystal structures of JOMBtrans and 49 were solved with CypD.

[3] = tested on: mPTP; experiment: inhibition of mPTP in in vitro cell culture; assay type: cell-based; conditions: result in words
Method: As disclosed herein, macrocycle inhibitors of cyclophilin D have been discovered and designed with previously unparalleled specificity. An active site binder displaying weak inhibition (IC50=15 uM) and no selectivity profile was initially optimized to 200 nM. CypD specificity was designed by building into S2 pocket residues. Bi-phenyl para-carboxylates provided the greatest level of potency (<2-30 nM) and selectivity for CypD. Co-crystal structures of these macrocycles bound to CypD were solved, and a dual binding mode was determined between active site and S2 pocket. MD simulations of co-crystal structures were conducted to observe dynamic interactions of carboxylate with S2 pocket. Initial proof of target engagement was determined via inhibition of the mPTP.

[4] = tested on: mPTP in isolated mice kidney mitochondria; experiment: inhibition of mPTP in isolated mitochondria (tolerated Ca2+ pulses before full mPTP opening); conditions: result in words
Method: In isolated mice kidney mitochondria, the maximum number of Ca^2+ pulses that could be tolerated before full mPTP opening was measured (see FIG. 24).

CypD, sequence (P30405 30-207): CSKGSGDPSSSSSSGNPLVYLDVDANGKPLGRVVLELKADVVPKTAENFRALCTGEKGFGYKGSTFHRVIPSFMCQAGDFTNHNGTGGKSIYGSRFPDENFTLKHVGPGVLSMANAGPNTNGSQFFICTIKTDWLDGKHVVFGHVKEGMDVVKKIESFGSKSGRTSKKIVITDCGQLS

Row | Structure (SMILES) | pIC50 ([1]; read-out: potency for CypD) | potency for CypD (in words) ([1]; result in words) | specificity / selectivity profile for CypD (in words) [2] | rescue of mPTP in cell culture [3] | number of tolerated Ca2+ pulses before full mPTP opening [4]
1 | NCCOCCNC(=O)[C@@H]1CCNC(=O)/C=C/C(=O)N2CCC[C@](Cc3ccccc3)(C2)C(=O)N[C@@H](Cc2ccc(-c3ccc(CCC(=O)O)cc3)cc2)C(=O)NCc2ccccc2CC(=O)N1 [A-81] | 8.60 | high potency | high specificity; also recorded: drastic preference for inhibition of CypD | appears to not rescue mPTP | extend Ca^2+ loading
2 | CC(=O)c1ccc(-c2ccc(C[C@@H]3NC(=O)[C@]4(Cc5ccccc5)CCCN(C4)C(=O)/C=C/C(=O)NCC[C@@H](C(=O)NCCOCCN)NC(=O)Cc4ccccc4CNC3=O)cc2)cc1 [A-22] |  |  |  | minimal rescue | extend Ca^2+ loading
